Experimental data published in patent US20230139171A1 (SITA Information Networking Computing UK Limited, priority 2019, published 2023).

What was measured:
Type in all cases: cell-based
human TLR9 = molecular target: T1, human TLR9 (Homo sapiens, UniProt Q9NR96); experiment: TLR9 inhibition reporter assay (HEK-Blue cells, SEAP reporter, ODN2006 stimulation); conditions: HEK-Blue cells overexpressing human TLR9, SEAP reporter, ODN2006 5 nM
T1 construct: host or cells: HEK-Blue cells
T1 sequence (Q9NR96 26-1032): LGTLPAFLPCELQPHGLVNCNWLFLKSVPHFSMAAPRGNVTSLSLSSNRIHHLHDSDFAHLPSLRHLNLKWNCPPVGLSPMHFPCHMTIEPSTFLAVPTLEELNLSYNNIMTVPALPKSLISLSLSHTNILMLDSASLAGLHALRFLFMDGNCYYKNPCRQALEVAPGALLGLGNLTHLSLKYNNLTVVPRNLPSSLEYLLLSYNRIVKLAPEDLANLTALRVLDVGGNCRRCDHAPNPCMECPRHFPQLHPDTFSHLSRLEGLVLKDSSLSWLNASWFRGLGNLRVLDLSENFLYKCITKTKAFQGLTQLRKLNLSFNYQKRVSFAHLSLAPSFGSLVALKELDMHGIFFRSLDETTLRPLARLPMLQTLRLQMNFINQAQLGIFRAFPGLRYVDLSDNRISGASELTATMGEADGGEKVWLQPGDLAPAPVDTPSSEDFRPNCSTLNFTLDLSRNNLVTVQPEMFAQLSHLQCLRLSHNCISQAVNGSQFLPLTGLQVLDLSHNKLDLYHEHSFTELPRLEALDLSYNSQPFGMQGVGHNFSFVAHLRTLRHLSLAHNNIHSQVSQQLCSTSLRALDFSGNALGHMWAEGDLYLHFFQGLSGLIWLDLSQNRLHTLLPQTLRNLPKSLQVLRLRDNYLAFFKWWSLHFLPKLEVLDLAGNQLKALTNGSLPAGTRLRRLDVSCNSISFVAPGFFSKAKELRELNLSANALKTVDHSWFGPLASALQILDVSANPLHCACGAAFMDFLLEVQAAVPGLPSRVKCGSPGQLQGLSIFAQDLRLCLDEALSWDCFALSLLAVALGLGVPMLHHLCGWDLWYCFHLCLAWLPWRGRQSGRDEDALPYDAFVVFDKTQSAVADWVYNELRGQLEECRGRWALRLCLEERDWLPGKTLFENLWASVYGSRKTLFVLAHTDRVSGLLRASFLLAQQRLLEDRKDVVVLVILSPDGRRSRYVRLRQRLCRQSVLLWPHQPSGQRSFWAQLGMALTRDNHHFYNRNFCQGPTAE
Summary of the method: (§1)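 Compound treatment: 30 min, RT, 0.05 nM–50 μM final. Agonist: TLR7 gardiquimod 7.5 μM; TLR8 R848 15.9 μM; TLR9 ODN2006 5 nM. Incubation 22 h, 37 °C, 5% CO2. Readout SEAP, HEK-Blue Detection.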

human TLR7 = molecular target: T2, human TLR7 (Homo sapiens, UniProt Q9NYK1); experiment: TLR7 inhibition reporter assay (HEK-Blue cells, SEAP reporter, gardiquimod stimulation); conditions: HEK-Blue cells overexpressing human TLR7, SEAP reporter, gardiquimod 7.5 μM; read-out: TLR7 IC50
T2 construct: host or cells: HEK-Blue cells
T2 sequence (Q9NYK1 27-1049): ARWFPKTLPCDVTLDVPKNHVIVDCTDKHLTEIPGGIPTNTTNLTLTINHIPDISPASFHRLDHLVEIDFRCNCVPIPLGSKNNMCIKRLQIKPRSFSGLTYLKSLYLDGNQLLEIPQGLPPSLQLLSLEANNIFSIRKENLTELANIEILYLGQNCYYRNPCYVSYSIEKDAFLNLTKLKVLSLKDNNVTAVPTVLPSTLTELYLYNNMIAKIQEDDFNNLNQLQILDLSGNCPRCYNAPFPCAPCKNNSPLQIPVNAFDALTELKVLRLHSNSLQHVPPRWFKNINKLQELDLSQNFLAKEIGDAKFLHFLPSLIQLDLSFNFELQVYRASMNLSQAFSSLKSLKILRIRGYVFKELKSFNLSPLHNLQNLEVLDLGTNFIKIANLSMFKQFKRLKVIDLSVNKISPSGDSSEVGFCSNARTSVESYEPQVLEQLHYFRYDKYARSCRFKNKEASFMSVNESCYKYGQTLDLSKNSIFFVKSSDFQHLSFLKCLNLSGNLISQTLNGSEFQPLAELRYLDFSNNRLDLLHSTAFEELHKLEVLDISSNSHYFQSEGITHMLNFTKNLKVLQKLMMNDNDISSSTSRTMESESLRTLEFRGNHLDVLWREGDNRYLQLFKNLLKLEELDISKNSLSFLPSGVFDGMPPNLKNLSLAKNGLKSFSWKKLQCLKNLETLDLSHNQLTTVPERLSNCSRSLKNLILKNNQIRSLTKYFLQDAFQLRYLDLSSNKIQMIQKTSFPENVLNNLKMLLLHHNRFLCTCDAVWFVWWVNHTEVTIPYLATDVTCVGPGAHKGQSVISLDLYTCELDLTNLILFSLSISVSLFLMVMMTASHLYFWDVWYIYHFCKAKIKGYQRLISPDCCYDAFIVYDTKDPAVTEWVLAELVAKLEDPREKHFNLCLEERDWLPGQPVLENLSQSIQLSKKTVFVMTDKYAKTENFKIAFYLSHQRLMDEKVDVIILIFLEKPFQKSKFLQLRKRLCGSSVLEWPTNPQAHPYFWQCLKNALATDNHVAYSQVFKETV
Summary of the method: as §1

human TLR8 = molecular target: T3, human TLR8 (Homo sapiens, UniProt Q9NR97); experiment: TLR8 inhibition reporter assay (HEK-Blue cells, SEAP reporter, R848 stimulation); conditions: HEK-Blue cells overexpressing human TLR8, SEAP reporter, R848 15.9 μM; read-out: TLR8 IC50
T3 construct: host or cells: HEK-Blue cells
T3 sequence (Q9NR97 27-1041): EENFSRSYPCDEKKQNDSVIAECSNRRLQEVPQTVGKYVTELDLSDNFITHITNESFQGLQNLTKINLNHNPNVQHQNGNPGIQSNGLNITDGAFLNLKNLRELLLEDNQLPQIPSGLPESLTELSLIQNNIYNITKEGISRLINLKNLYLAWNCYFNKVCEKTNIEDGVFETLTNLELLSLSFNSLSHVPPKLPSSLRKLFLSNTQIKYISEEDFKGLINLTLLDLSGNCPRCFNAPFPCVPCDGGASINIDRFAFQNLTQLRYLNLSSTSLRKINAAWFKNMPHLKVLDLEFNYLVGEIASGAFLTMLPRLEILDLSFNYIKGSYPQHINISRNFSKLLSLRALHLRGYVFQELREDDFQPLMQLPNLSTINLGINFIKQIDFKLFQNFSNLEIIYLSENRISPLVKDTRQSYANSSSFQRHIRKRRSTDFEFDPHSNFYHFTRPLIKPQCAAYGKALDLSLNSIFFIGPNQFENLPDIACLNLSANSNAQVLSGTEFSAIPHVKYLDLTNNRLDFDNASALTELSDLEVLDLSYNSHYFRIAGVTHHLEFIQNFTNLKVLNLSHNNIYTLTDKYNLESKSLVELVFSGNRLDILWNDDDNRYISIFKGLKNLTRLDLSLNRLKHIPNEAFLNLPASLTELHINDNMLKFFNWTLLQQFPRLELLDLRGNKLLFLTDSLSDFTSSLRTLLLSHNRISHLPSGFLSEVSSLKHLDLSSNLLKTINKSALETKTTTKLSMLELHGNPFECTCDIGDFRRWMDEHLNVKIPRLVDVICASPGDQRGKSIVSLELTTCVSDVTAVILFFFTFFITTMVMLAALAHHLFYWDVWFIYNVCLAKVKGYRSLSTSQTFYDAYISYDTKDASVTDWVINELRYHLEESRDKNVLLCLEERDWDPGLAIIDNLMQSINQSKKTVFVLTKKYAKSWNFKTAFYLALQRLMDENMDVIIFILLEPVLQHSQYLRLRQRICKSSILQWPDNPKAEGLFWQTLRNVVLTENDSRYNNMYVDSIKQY
Summary of the method: as §1

| SMILES | IC50 (human TLR9) [µM] | IC50 (human TLR7) [nM] | IC50 (human TLR8) [nM] |
| --- | --- | --- | --- |
| COc1cc(-c2[nH]c3cc(C4CCNCC4)sc3c2C(C)C)cn2ncnc12 [Example 413, 6-isopropyl-5-(8-methoxy-[1,2,4]triazolo[1,5-a]pyridin-6-yl)-2-(piperidin-4-yl)-4H-thieno[3,2-b]pyrrole] | 3.1 | 5.3 | 9.3 |
| COc1cc(-c2[nH]c3sc(C4CCC(N5CCCOCC5)CC4)nc3c2C(C)C)cn2ncnc12 (single isomer, unassigned) [Example 103, 4-(4-(6-isopropyl-5-(8-methoxy-[1,2,4]triazolo[1,5-a]pyridin-6-yl)-4H-pyrrolo[3,2-d]thiazol-2-yl)cyclohexyl)-1,4-oxazepane] | 3.6 | 48 | 3.46 |
| Cc1cc(-c2[nH]c3nc(C4CCN(CC5(C)COC5)CC4)sc3c2C(C)C)cn2ncnc12 [Example 412, 6-isopropyl-5-(8-methyl-[1,2,4]triazolo[1,5-a]pyridin-6-yl)-2-(1-((3-methyloxetan-3-yl)methyl)piperidin-4-yl)-4H-pyrrolo[2,3-d]thiazole] | 5 | 50 | 520 |
| CNCC(=O)N1CCN(c2nc3c(C(C)C)c(-c4cn5ncnc5c(C)c4C)[nH]c3s2)[C@H](C)C1 [Example 326, (R)-1-(4-(5-(7,8-dimethyl-[1,2,4]triazolo[1,5-a]pyridin-6-yl)-6-isopropyl-4H-pyrrolo[3,2-d]thiazol-2-yl)-3-methylpiperazin-1-yl)-2-(methylamino)ethan-1-one] | 17.6 | 5.42 | 7.97 |
| COc1cc(-c2[nH]c3sc(C4CCC(N5CCNC(=O)C5)CC4)nc3c2C)cn2ncnc12 (single isomer, unassigned) [Example 276, 4-(4-(5-(8-methoxy-[1,2,4]triazolo[1,5-a]pyridin-6-yl)-6-methyl-4H-pyrrolo[3,2-d]thiazol-2-yl)cyclohexyl)piperazin-2-one] | > 50 | 975 | > 3130 |
| CCN(C)C1CCC(c2nc3c(C(C)C)c(-c4cc(OC)c5ncnn5c4)[nH]c3s2)CC1 (single isomer, unassigned) [Example 73, N-ethyl-4-(6-isopropyl-5-(8-methoxy-[1,2,4]triazolo[1,5-a]pyridin-6-yl)-4H-pyrrolo[3,2-d]thiazol-2-yl)-N-methylcyclohexan-1-amine] | 4.28 | 0.96 | 12.7 |
| Cc1c(-c2[nH]c3sc(N4CCC(NC5(C)COC5)CC4)nc3c2C(C)C)cn2ncnc2c1C [Example 290, 1-(5-(7,8-dimethyl-[1,2,4]triazolo[1,5-a]pyridin-6-yl)-6-isopropyl-4H-pyrrolo[3,2-d]thiazol-2-yl)-N-(3-methyloxetan-3-yl)piperidin-4-amine] | 22.1 | 8.56 | 1.09 |
| COc1cc(-c2[nH]c3sc(C4CCC(N(C)CCS(C)(=O)=O)CC4)nc3c2C(C)C)cn2ncnc12 (single isomer, unassigned) [Example 165, 4-(6-isopropyl-5-(8-methoxy-[1,2,4]triazolo[1,5-a]pyridin-6-yl)-4H-pyrrolo[3,2-d]thiazol-2-yl)-N-methyl-N-(2-(methylsulfonyl)ethyl) cyclohexan-1-amine] | 22.8 | 1.61 | 14.4 |

Further compounds by falling IC50 (human TLR9), results first:

| IC50 (human TLR9) [µM] | IC50 (human TLR7) [nM] | IC50 (human TLR8) [nM] | SMILES |
| --- | --- | --- | --- |
| 14.8 | 0.93 | 3.96 | Cc1cc(-c2[nH]c3sc(C4CCC(NC56CC(C5)C6)CC4)nc3c2C(C)C)cn2ncnc12 (single isomer, unassigned) [Example 138, N-(4-(6-isopropyl-5-(8-methyl-[1,2,4]triazolo[1,5-a]pyridin-6-yl)-4H-pyrrolo[3,2-d]thiazol-2-yl)cyclohexyl)bicyclo[1.1.1]pentan-1-amine] |
| 9.22 | 0.9 | 0.37 | Cc1c(-c2[nH]c3sc(C4CCC(NC(C)C)CC4)nc3c2C(C)C)cn2ncnc2c1C (single isomer, unassigned) [Example 194, 4-(5-(7,8-dimethyl-[1,2,4]triazolo[1,5-a]pyridin-6-yl)-6-isopropyl-4H-pyrrolo[3,2-d]thiazol-2-yl)-N-isopropylcyclohexan-1-amine] |
| 4.83 | 13.6 | 3.19 | Cc1c(-c2[nH]c3sc(N4C[C@@H](C)N(C(C)C)C[C@@H]4C)nc3c2C(C)C)cn2ncnc2c1C [Example 334, 5-(7,8-dimethyl-[1,2,4]triazolo[1,5-a]pyridin-6-yl)-6-isopropyl-2-((2S,5R)-4-isopropyl-2,5-dimethylpiperazin-1-yl)-4H-pyrrolo[3,2-d]thiazole] |
| 3.3 | 2 | 1.26 | COc1cc(-c2[nH]c3sc(C4CCC(N5CC(O)(C(F)(F)F)C5)CC4)nc3c2C(C)C)cn2ncnc12 (single isomer, unassigned) [Example 118, 1-(4-(6-isopropyl-5-(8-methoxy-[1,2,4]triazolo[1,5-a]pyridin-6-yl)-4H-pyrrolo[3,2-d]thiazol-2-yl)cyclohexyl)-3-(trifluoromethyl)azetidin-3-ol] |
